According to patent publication US20150239831A1, “INHIBITORS OF CENTRAL NERVOUS SYSTEM VASOACTIVE INHIBITORY PEPTIDE RECEPTOR 2” (The Trustees Of Columbia University In The City Of New York, priority 2012, published 2015):

Experiments:
VPAC1 = biological target: T1, VPAC1 (Homo sapiens, UniProt P32241); conditions: Chu et al., 2010; cited from earlier work
T1 sequence (P32241 31-457): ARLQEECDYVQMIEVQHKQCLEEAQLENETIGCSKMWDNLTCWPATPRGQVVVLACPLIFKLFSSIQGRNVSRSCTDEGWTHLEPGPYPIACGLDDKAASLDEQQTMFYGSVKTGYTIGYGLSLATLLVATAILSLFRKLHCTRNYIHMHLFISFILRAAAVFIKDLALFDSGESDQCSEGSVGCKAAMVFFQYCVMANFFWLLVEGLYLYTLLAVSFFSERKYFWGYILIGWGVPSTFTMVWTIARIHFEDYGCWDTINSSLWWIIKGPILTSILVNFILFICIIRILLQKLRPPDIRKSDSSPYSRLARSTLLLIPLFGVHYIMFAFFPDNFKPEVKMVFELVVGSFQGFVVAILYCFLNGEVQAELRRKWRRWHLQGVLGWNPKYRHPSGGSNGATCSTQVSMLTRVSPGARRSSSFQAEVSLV

VIPR2 = biological target: T2, VIPR2 (Homo sapiens, UniProt P41587); test: BRET-based VIPR2 activation assay (CAMYEL cAMP sensor, CHO cells, VIP background); assay type: cell-based; conditions: FIG. 1C, FIG. 5
T2 sequence (P41587 24-438): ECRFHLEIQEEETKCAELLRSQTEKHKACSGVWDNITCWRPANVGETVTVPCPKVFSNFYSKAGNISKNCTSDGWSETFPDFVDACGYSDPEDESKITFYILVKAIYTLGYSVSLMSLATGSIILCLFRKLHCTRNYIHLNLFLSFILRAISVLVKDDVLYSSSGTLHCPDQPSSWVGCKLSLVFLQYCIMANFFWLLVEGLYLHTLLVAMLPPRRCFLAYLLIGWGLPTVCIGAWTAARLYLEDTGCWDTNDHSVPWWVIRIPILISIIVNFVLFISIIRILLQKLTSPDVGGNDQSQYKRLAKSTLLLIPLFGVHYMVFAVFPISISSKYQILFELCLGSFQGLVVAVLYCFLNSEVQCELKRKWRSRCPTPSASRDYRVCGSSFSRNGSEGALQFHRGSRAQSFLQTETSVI
Description: In such a system, a detector cell is used which expresses both the VIPR2 receptor and “CAMYEL,” a YFP-Epac-RLuc8 BRET sensor construct. This construct includes Epac1, a guanine nucleotide exchange factor activated by direct binding of cAMP, fused with an enhanced YFP and Renilla luciferase 8 (Rluc8) allowing BRET upon cAMP-induced conformational changes (Jiang et al., 2007, J Biol Chem. 282:10576-10584). In response to elevated cAMP levels, there is a conformational change in Epac and therefore a change in the proximity of the fused chromophores, Rluc8 and YFP, resulting in measurable energy transfer. Coexpression of this BRET construct with VIPR2, optionally tagged at the N-terminus with a signal peptide and FLAG epitope (SF-VIPR2), for example in HEK293 cells, allows for detection of a VIPR2-specific response to cAMP. BRET readout may be calculated by quantifying the ratio of the light emitted by the acceptor, YFP (λ=525 nm), over the emission from the donor, RLuc8 (λ=485 nm). The proximity of the donor and acceptor, and therefore the BRET ratio, decreases in the presence of cAMP. In non-limiting specific embodiments, a stable cell line may be generated for this assay using the Flp-In T-Rex system in HEK293 cells. This system allows site-specific single copy integration of the gene of interest and control of expression levels using the Tet-repressor site making receptor expression tetracycline-inducible. For example, a CAMYEL and VIPR2 expressing line may be induced with 0.01 μg/ml tetracycline, then, 24 hours later cells may be collected and distributed into 96-well plates. After treatment with candidate inhibitor compound, for example at 5, 1 and 0.5 μM concentrations, cells may be incubated with the light emitting luciferin, coelenterazine H, for 5 min and incubated for 5 min with VIP at increasing concentrations, for example ranging from […] to 10 μM. The fluorescence and luminescence may then be quantified, for example using a PHERAstar (BMG) plate reader. […] Alternatively, analogous experiments may be performed using human cells harvested from a patient having a VIPR2 copy number variation, for example (but not by way of limitation) pluripotent stem cells prepared from such a patient and then transfected with a CAMYEL construct.
Numerous cellular assays were developed that were able to detect VIP responses absent of interference from non-specific vasopressin receptors using this CHO based system. VIPR2 is a Gs coupled receptor. Activation of VIPR2 by VIP leads to both an elevation in cAMP signaling and the recruitment of β-arrestin. A variety of combinations can be transiently transfect into these CHO cells for the assessment of cellular responses to VIP. For the BRET readout CHO cell lines expressing an YFP-Epac-RLuc8 (CAMYEL) BRET sensor were used to detect changes in cAMP. This construct includes Epac1, a guanine nucleotide exchange factor activated by direct binding of cAMP, fused to an enhanced YFP and RLuc8 allowing a change in BRET upon cAMP-induced conformational changes. The key for medium to high throughput screening assays is the use of stable cell lines allowing the continuous assaying of multiple compounds with the ability to generate large numbers of cells for rapid use. In these lines VIPR2 was expressed as one of the stable cell lines assays. This was introduced into the CHO-Flp-IN to allow the generation of isogenic stable cell lines expressing high levels of VIPR2 under control of the CMV promoter. This has been introduced into this line together with the CAMYEL construct previously described. This allows for detection of VIPR2-specific responses to cAMP. EYFP fluorescence and RLuc8 luminescence is quantified in the presence of 5 μM light-emitting luciferin, coelenterazine H, using a PHERAstar (BMG) plate reader. BRET is calculated by quantifying the ratio of the light emitted by the acceptor, YFP (λ=525 nm), over the emission from the donor, RLuc8 (λ=485 nm).
3. […]

PAC1 = biological target: T3, PAC1 (Homo sapiens, UniProt P41586); conditions: Chu et al., 2010; cited from earlier work
T3 sequence (P41586 21-468): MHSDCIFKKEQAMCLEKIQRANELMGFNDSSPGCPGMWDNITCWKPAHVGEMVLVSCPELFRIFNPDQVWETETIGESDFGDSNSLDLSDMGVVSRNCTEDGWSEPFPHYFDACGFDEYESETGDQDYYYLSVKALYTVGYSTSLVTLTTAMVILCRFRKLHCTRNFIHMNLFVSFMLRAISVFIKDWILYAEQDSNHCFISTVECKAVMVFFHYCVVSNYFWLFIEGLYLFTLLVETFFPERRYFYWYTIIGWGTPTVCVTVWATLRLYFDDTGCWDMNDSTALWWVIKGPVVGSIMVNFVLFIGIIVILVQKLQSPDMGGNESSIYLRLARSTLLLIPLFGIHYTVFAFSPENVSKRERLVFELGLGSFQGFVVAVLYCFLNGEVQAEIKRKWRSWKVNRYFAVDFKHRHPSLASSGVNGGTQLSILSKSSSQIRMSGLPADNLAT

O=C(N[C@H]1c2ccccc2C[C@H]1O)[C@H](Cc1ccccc1)C[C@H](O)CNS(=O)(=O)c1ccc([N+](=O)[O-])cc1 [Compound 1]
agonist or antagonist activities for VPAC1 (VPAC1): no detectable agonist or antagonist activities
VIPR2 inhibition in BRET-based assay (in words) (VIPR2): rightward shift
agonist or antagonist activities for PAC1 (PAC1): no detectable agonist or antagonist activities
